The data set is described as follows: Human HepG2 cell viability assay in 384 well format. The settings on record: HepG2 cells, read-out: Inhibition. More on the design: dose 125 nL, time 70.5 hour; concentration not given beside the values. Type of data set: toxicity, cell-based.
As for `O=C1CC(c2cccnc2)c2c(c(C(=O)O)cn2-c2ccc(Cl)cc2)N1` (configuration not stated), the cytotoxicity at 70.5 h is -7.08%.

As for `CN1CCN(C(=O)c2cc3sccc3n2Cc2ccccc2F)CC1`, the cytotoxicity at 70.5 h is -9.9%.

As to `CC(C)[C@H](NC(=O)Cn1nc2c(cc1=O)CCCC2)C(=O)O`, the cytotoxicity at 70.5 h was -4.44%.

Turning to `CCn1cc(-c2nn3c(C(F)(F)F)nnc3s2)cn1`, the cytotoxicity at 70.5 h is -16.2%.

`CN(C)CCCNC(=O)c1nc(Cc2c(Cl)cccc2Cl)no1`: the cytotoxicity at 70.5 h is 15.3%.

On to `O=C(Nc1ccccn1)c1csc(NC2CCCC2)n1`, for which the cytotoxicity at 70.5 h stood at 1.59%.

Turning to `Cc1nn(C)cc1C1CC(=O)Nc2c1cnn2C` (configuration not stated), the cytotoxicity at 70.5 h is -5.3%.

Turning to `Cc1nc(NC(=O)CN2C(=O)c3ccccc3NC2C(C)C)sc1C` (configuration not stated), the cytotoxicity at 70.5 h was -11.4%.

Consider `CC1CCc2[nH]c(=O)c(C(=O)N3CCc4ccccc4C3)cc2C1` (configuration not stated), for which the cytotoxicity at 70.5 h stood at 0.747%.

As to `COC(=O)[C@H](C)NC(=O)CSCc1nc2sc(C(C)C)cc2c(=O)[nH]1`, the cytotoxicity at 70.5 h was -9.3%.

With `Cc1c(CC(C#N)C(=O)Nc2cccc(O)c2)cnn1C` (configuration not stated), the cytotoxicity at 70.5 h was -12.8%.

In the case of `COc1ccc(NC(=O)c2cc3c([nH]c2=O)CCCC3=O)c(OC)c1`, the cytotoxicity at 70.5 h is -10.9%.

`Cc1cc(=O)n(CC(=O)Nc2ccc(Cl)cc2)nc1C`: the cytotoxicity at 70.5 h is -2.9%.

In the case of `O=C1CC(c2ccc3c(c2)OCO3)c2cnn(C3CCCC3)c2N1` (configuration not stated), the cytotoxicity at 70.5 h is -15.7%.

Take `CN1CCCC2(CCN(Cc3cncn3C3CCCCC3)C2)C1=O` (configuration not stated): the cytotoxicity at 70.5 h is -4.94%.

For `CN1CCCCC1Cc1nc(Cc2cccc(F)c2)no1` (configuration not stated), the cytotoxicity at 70.5 h is -7.83%.

Take `Cc1ccccc1CC(=O)N1CCc2c(ncnc2N2CCOCC2)C1`: the cytotoxicity at 70.5 h stood at 13.5%.

Consider `CCC(C)c1ccc(NC(=O)C2CCN(C(=O)COC)CC2)cc1` (configuration not stated), for which the cytotoxicity at 70.5 h was -6.71%.

On to `Cc1nc(N(C)CCN(C)C)c2cnn(C)c2n1`, for which the cytotoxicity at 70.5 h is 19.9%.

As to `COCc1nc2ncc3c(=O)n(-c4ccc(C(C)=O)cc4)ccc3n2n1`, the cytotoxicity at 70.5 h is -10.8%.

As for `Cc1cccc(C)c1OC1CN(Cc2cnn(C)c2)C1`, the cytotoxicity at 70.5 h was found to be 0.587%.

Turning to `Cc1nn(C)c(C)c1-c1cc(-c2cc(CC(=O)O)cs2)nc(N)c1C#N`, the cytotoxicity at 70.5 h was -7.79%.

Take `Cc1nonc1C1CCCN1Cc1ccc(C(=O)Nc2nccs2)cc1` (configuration not stated): the cytotoxicity at 70.5 h was 9.65%.

In the case of `O=C1CC(c2ccccc2F)c2c(n(C3CCCC3)[nH]c2=O)N1` (configuration not stated), the cytotoxicity at 70.5 h was -7.2%.

Consider `CC(=O)N1CCCn2nc(CNS(=O)(=O)Cc3ccccc3)cc2C1`, for which the cytotoxicity at 70.5 h is -3.38%.

As for `COc1cccc(-c2cc(NCC(=O)O)nc3[nH]ccc23)n1`, the cytotoxicity at 70.5 h came to 15.1%.

`CCCc1nc(C)cc(N2CCNC(C(=O)Nc3ccc(C)nc3)C2)n1` (configuration not stated): the cytotoxicity at 70.5 h came out at 19.3%.

Take `COc1ccnc(CN2CCC=C(C(C)NC(C)=O)C2)c1OC` (configuration not stated): the cytotoxicity at 70.5 h was -3.19%.

`CC(C)(C)c1cc(CN2CCOC(CN)C2)n[nH]1` (configuration not stated): the cytotoxicity at 70.5 h came to 2.01%.

Regarding `O=C(NCCN1CCOCC1)c1ccc(-c2ccc(F)cc2)nc1O`, the cytotoxicity at 70.5 h was -3.89%.

With `CN1CC2(CCN(CCOCCO)CC2)CC(c2ccccc2)C1=O` (configuration not stated), the cytotoxicity at 70.5 h is 29.9%.

In the case of `CC(=O)NC1CC(C)(C)Cc2c1cnn2-c1cccc(F)c1` (configuration not stated), the cytotoxicity at 70.5 h was -9.9%.

Take `COc1nc2c(cc1C(=O)NCCc1nc(C)c(C(=O)O)s1)CCC2`: the cytotoxicity at 70.5 h is 10%.

`O=C1CC(c2ccccc2)c2cnn(C3CCCC3)c2N1` (configuration not stated): the cytotoxicity at 70.5 h was 18.5%.

With `Cc1ccc2c(c1)OC(C)(C)CC2NC(=O)C1CCN(C)CC1` (configuration not stated), the cytotoxicity at 70.5 h is -9.96%.

Consider `O=C(CCN1CCOCC1)N1CCC(Cc2ccc(CO)cc2)C1` (configuration not stated), for which the cytotoxicity at 70.5 h was -2.12%.

In the case of `O=C(CN1CCCC1Cn1cncn1)NCCOc1ccc(F)cc1` (configuration not stated), the cytotoxicity at 70.5 h was -0.118%.

Regarding `Cc1ccccc1C1(CNC(=O)NC(C)c2nncn2C)CC1` (configuration not stated), the cytotoxicity at 70.5 h was -2.77%.

With `CC(NC(=O)NCC1(c2ccc(Cl)cc2)CC1)c1nncn1C` (configuration not stated), the cytotoxicity at 70.5 h was -2.86%.

`O=C(CN1CCCC1Cn1cccn1)NCCOc1cccc(F)c1` (configuration not stated): the cytotoxicity at 70.5 h is -0.693%.

In the case of `CCNc1cc2c(nn1)CCN(C(=O)CCc1c(C)noc1C)C2`, the cytotoxicity at 70.5 h was found to be 18.9%.

In the case of `Cc1nc(C2CCCN(C(=O)c3ccc(OCC4CC4)nc3)C2)no1` (configuration not stated), the cytotoxicity at 70.5 h is -2.87%.

`CCOc1cc(C(=O)N2CCCC(c3noc(C)n3)C2)ccc1OC` (configuration not stated): the cytotoxicity at 70.5 h is -4.06%.

Consider `CCNc1cc2c(nn1)CCN(C(=O)CCc1c(C)noc1Cl)C2`, for which the cytotoxicity at 70.5 h is -4.23%.

Turning to `CCNc1cc2c(nn1)CCN(C(=O)Cc1c(C)nn(C)c1C)C2`, the cytotoxicity at 70.5 h was -2.18%.

In the case of `Cc1cccc(C)c1OCCNC(=O)CN1CCN(C)CC1C` (configuration not stated), the cytotoxicity at 70.5 h worked out at 16.7%.

As to `CCOc1ncccc1NC(=O)N1CCN(CC(=O)NC)CC1`, the cytotoxicity at 70.5 h is -8.56%.

On to `Fc1cc(CN2CCCC2Cn2cncn2)c2ncccc2c1` (configuration not stated), for which the cytotoxicity at 70.5 h came out at 4.94%.

On to `CCOc1ncccc1NC(=O)N1CCN(Cc2ccncc2)CC1`, for which the cytotoxicity at 70.5 h is -4.21%.

On to `Cc1ccc(C(C)N(C)Cc2nc3c(cnn3C)c(=O)[nH]2)c(C)c1` (configuration not stated), for which the cytotoxicity at 70.5 h was -4.81%.

Regarding `CN(CCCc1cc(-c2ccccc2)no1)S(C)(=O)=O`, the cytotoxicity at 70.5 h worked out at 8.59%.

Regarding `COc1ccccc1C(C)N(C)Cc1nc2c(cnn2C)c(=O)[nH]1` (configuration not stated), the cytotoxicity at 70.5 h is -8.94%.

Turning to `O=C1NCCN1C1CCN(CCOc2ccccc2Cl)CC1`, the cytotoxicity at 70.5 h is 0.552%.

As for `Cn1ccnc1CN1CCN(Cc2ccc(C#N)cc2F)CC1`, the cytotoxicity at 70.5 h is -1.66%.

In the case of `Cn1ccnc1CN1CCN(Cc2ccc(C#N)cc2)CC1`, the cytotoxicity at 70.5 h was -2.96%.

With `CC1CN(Cc2ccc(C#N)cc2F)CCN1Cc1nccn1C` (configuration not stated), the cytotoxicity at 70.5 h is -5.45%.

`COc1ccccc1OCCNC(=O)CN1CCN(C)CC1C` (configuration not stated): the cytotoxicity at 70.5 h is -2.58%.

On to `CC1CN(C)CCN1CC(=O)NCCOc1ccc2c(c1)OCO2` (configuration not stated), for which the cytotoxicity at 70.5 h was 9.64%.

Consider `CCc1ccc(S(=O)(=O)Nc2cc(C(=O)O)ccc2F)s1`, for which the cytotoxicity at 70.5 h was -3.74%.

With `O=C1NCCN1C1CCN(CCOc2cccc3ccccc23)CC1`, the cytotoxicity at 70.5 h came to 0.611%.

Turning to `CN1CCOC(CNCc2ccccc2OCc2ccccn2)C1` (configuration not stated), the cytotoxicity at 70.5 h was -9.16%.

For `CNc1nc(CNC(=O)Nc2cccc(CN(C)C)c2)cs1`, the cytotoxicity at 70.5 h came out at 0.614%.

As for `Cc1ccc(CC(=O)N2CCCC(c3cc(C(N)=O)[nH]n3)C2)cn1` (configuration not stated), the cytotoxicity at 70.5 h was -2.37%.

As to `CNc1nc(CNC(=O)Nc2cccc(CC(F)(F)F)c2)cs1`, the cytotoxicity at 70.5 h is -4.82%.

On to `O=C(CN1CCOC(Cn2cncn2)C1)NCc1cccs1` (configuration not stated), for which the cytotoxicity at 70.5 h turned out to be 29.2%.

`Cc1ccc(C2CCCN2S(=O)(=O)N(C)CCc2ccccn2)o1` (configuration not stated): the cytotoxicity at 70.5 h was determined as 4.42%.

For `CSc1ccc(CN(C)C(=O)c2cc3c([nH]c2=O)CCCC3=O)cc1`, the cytotoxicity at 70.5 h was -2.82%.

On to `Cc1noc(C)c1C(=O)NCCSCc1cccs1`, for which the cytotoxicity at 70.5 h was 0.282%.

Consider `CS(=O)(=O)NC1CCN(C(=O)NCCc2ccccn2)CC1`, for which the cytotoxicity at 70.5 h worked out at 13.9%.

As for `CS(=O)(=O)NC1CCN(C(=O)NCc2ccccn2)CC1`, the cytotoxicity at 70.5 h was -2.65%.

Take `CCc1nc(CN2CCN(C(=O)c3cncnc3CC)CC2)cs1`: the cytotoxicity at 70.5 h was -3.73%.

`COCCCNC(=O)CN(C)C(=O)c1ccc(OC)cc1O`: the cytotoxicity at 70.5 h was -5.57%.

With `Cc1cc(C)n(CC2CN(CC(=O)NCc3cccs3)CCO2)n1` (configuration not stated), the cytotoxicity at 70.5 h is 13.4%.

On to `COCCNC(=O)CN1CCN(c2nc(C)cs2)CC1`, for which the cytotoxicity at 70.5 h was -3.26%.

Consider `O=C(CN1CCOC(Cn2cccn2)C1)NCc1ccco1` (configuration not stated), for which the cytotoxicity at 70.5 h was -2.4%.

Take `O=C(CN1CCOC(Cn2cccn2)C1)NCCc1cccs1` (configuration not stated): the cytotoxicity at 70.5 h was -4.13%.

For the molecule `Cc1csc(N2CCN(CC(=O)NC3CCOCC3)CC2C)n1` (configuration not stated), the cytotoxicity at 70.5 h is -1.39%.

For the molecule `Cc1nn(C)c(C)c1C1CCCN1C(=O)c1ccc2nnc(C)n2c1` (configuration not stated), the cytotoxicity at 70.5 h was -2.36%.

On to `CC(C)N(Cc1ccccn1)S(=O)(=O)N1CCCC1c1ccco1` (configuration not stated), for which the cytotoxicity at 70.5 h amounted to 3.04%.

Regarding `N#CCCN(C(=O)CN1CCCC1c1cccs1)c1ccccc1F` (configuration not stated), the cytotoxicity at 70.5 h was 1.76%.

With `CCc1ccc(C(=O)N2CCCCC2Cn2cccn2)o1` (configuration not stated), the cytotoxicity at 70.5 h turned out to be 6.61%.

Take `Cc1cnn(CCNCc2ccccc2F)c1`: the cytotoxicity at 70.5 h came to 0.747%.

Consider `Cc1ccc(OCCN2CCN(Cc3cnn(CCO)c3)CC2)cc1`, for which the cytotoxicity at 70.5 h is -0.0785%.

As for `CN(Cc1cnn(C)c1)C(=O)NCc1cc(Br)cs1`, the cytotoxicity at 70.5 h was -2.54%.

On to `Cc1ncsc1C(=O)NCCc1cccs1`, for which the cytotoxicity at 70.5 h was found to be 2.38%.

Turning to `N#CCCN(C(=O)CN1CCCC1c1ccsc1)c1ccccc1` (configuration not stated), the cytotoxicity at 70.5 h stood at 20.9%.

For the molecule `Cc1cncc(C(=O)NCCSCc2cccs2)c1`, the cytotoxicity at 70.5 h was -3.14%.

For the molecule `CCc1nnc2n1CCN(Cc1cccc3c1OCCO3)C2`, the cytotoxicity at 70.5 h turned out to be 21.6%.

In the case of `c1ccc(-c2nnc3n2CCN(Cc2ccc4c(c2)OCCO4)C3)cc1`, the cytotoxicity at 70.5 h came out at 26.9%.

Turning to `c1ccc2oc(CN3CCCC3c3noc(C4CC4)n3)nc2c1` (configuration not stated), the cytotoxicity at 70.5 h is -11.3%.

On to `CCOc1ncccc1CNc1nnc(C)c(C)c1C#N`, for which the cytotoxicity at 70.5 h is -0.879%.

For the molecule `Cc1nnc(NCc2ccccc2F)c(C#N)c1C`, the cytotoxicity at 70.5 h was -5.23%.

With `Cc1nnc(NCc2ccccc2S(=O)(=O)N(C)C)c(C#N)c1C`, the cytotoxicity at 70.5 h worked out at 0.114%.

For `COc1cccc(C(NCc2ccc(SC)cc2)c2nccn2C)c1` (configuration not stated), the cytotoxicity at 70.5 h came to 3.42%.

As for `COc1ccccc1C(NCc1ccc(SC)cc1)c1nccn1C` (configuration not stated), the cytotoxicity at 70.5 h was 11.2%.

Turning to `O=C(NCCn1nc2ccccn2c1=O)c1scnc1Cl`, the cytotoxicity at 70.5 h was -2.79%.

Turning to `Cn1ccnc1C(NCc1ccccc1)c1ccc(F)cc1` (configuration not stated), the cytotoxicity at 70.5 h was -2.68%.

In the case of `Cc1ncncc1C(=O)NCCn1nc2ccccn2c1=O`, the cytotoxicity at 70.5 h was -3.41%.

As for `Cc1nnc(NCc2cccnc2OCC(F)(F)F)c(C#N)c1C`, the cytotoxicity at 70.5 h is -0.691%.

On to `Cc1nc(C)c(C(=O)NCCn2nc3ccccn3c2=O)s1`, for which the cytotoxicity at 70.5 h was -1.89%.

`CCc1nnc2n1CCN(Cc1cc(Cl)c3c(c1)OCCCO3)C2`: the cytotoxicity at 70.5 h amounted to 0.524%.

For `CSc1ccc(CNC(c2ccccc2F)c2nccn2C)cc1` (configuration not stated), the cytotoxicity at 70.5 h was found to be 0.516%.

For the origin of these results see ChEMBL document CHEMBL3507680, “University of Dundee, Gates Library screen for HepG2 cell viability”.
